Reference: patent US8466113B2, “4-isopropylphenyl glucitol compounds as SGLT1 inhibitors” (Taisho Pharmaceutical Co., Ltd., priority 2009, dated 2013)

Assay: Kidney concentrations until one week after single oral administration
Format: in vivo
Settings: Sprague-Dawley (SD/IGS), rat, male Sprague-Dawley rats; for concentration at 24 h / concentration at 72 h / concentration at 168 h: single oral 1 mg/kg
Protocol: (1) Changes in Kidney Concentrations of Compounds Disclosed in WO07/136116 Until One Week After Oral Administration
SD/IGS rats at 7 weeks of age (male, non-fasting, Charles River Laboratories Japan Inc.) were orally administered with compound 10 or 33 (1 mg/kg) or compound 11 (0.3 mg/kg) prepared in a 0.5% aqueous CMC solution. At 24, 72 and 168 hours after drug administration, the rats were exsanguinated via the postcaval vein under ether anesthesia, and their kidneys were excised after they were confirmed to be euthanized. After the tissue surface was washed with physiological saline, each tissue was measured for its weight and homogenized in 4 volumes of purified water under ice cooling. To each homogenate, an acetonitrile/methanol solution containing an internal standard substance was added to remove proteins, and the supernatant was then subjected to LC-MS/MS (Applied Biosystems API3000). Drug-derived ions generated by electrospray ionization in positive ion mode were detected by selective reaction monitoring. The peak area of the resulting extracted ion chromatogram was analyzed by the internal standard method to calculate the drug concentration in the homogenate.
The internal standard substance used for compounds 10 and 33 was (1S)-1,5-anhydro-1-[5-(4-ethoxybenzyl)-2-methoxy-4-methylphenyl]-1-thio-D-glucitol,ethyl-D5, while the internal standard substance used for compound 11 was compound 11 (trishydroxymethyl-D6; —C(CD2OH)3).

[1] = read-out: Concentration of compounds in kidney After 1 day
[2] = read-out: Concentration of compounds in kidney After 3 days
[3] = read-out: Concentration of compounds in kidney After 7 days

Structure (SMILES)	concentration at 24 h [1]	concentration at 72 h [2]	concentration at 168 h [3]	concentration at 1 day (single oral 0.3 mg/kg, mean ± S.D., read-out: Concentration of compounds in kidney After 1 day)	concentration at 3 days (single oral 0.3 mg/kg, mean ± S.D., read-out: Concentration of compounds in kidney After 3 days)	concentration at 7 days (single oral 0.3 mg/kg, mean ± S.D., read-out: Concentration of compounds in kidney After 7 days)
Cc1cc(O)c([C@@H]2O[C@H](CO)[C@@H](O)[C@H](O)[C@H]2O)cc1Cc1ccc(CCNC(=O)NC(C)(C)CO)cc1 [compound 10]	167 ± 36.3 ng/g	124 ± 21.2 ng/g	53.8 ± 7.61 ng/g	–	–	–
Cc1cc(O)c([C@@H]2O[C@H](CO)[C@@H](O)[C@H](O)[C@H]2O)cc1Cc1ccc(CCNC(=O)NC(CO)(CO)CO)cc1 [compound 11]	–	–	–	63.5 ± 20.1 ng/g	67.3 ± 3.15 ng/g	48.7 ± 18.3 ng/g
Cc1cc(O)c([C@@H]2O[C@H](CO)[C@@H](O)[C@H](O)[C@H]2O)cc1Cc1ccc(CCNC(=O)NC2CCN(Cc3ccccc3)CC2)cc1 [compound 33]	29.8 ± 6.79 ng/g	25.5 ± 8.68 ng/g	16.2 ± 3.11 ng/g	–	–	–
